Experimental data as given in ChEMBL document CHEMBL6087440, “Catalytic Lysine745 targeting strategy in fourth-generation EGFR tyrosine kinase inhibitors to address C797S mutation resistance” (Eur J Med Chem, 2025).

Experiments:
[1] = molecular target: Epidermal growth factor receptor (Homo sapiens, UniProt P00533, C797S/EX19DEL/T790M); assay: Inhibition of EGFR del19/T790M/C797S triple mutant (unknown origin) in presence of ATP by FRET assay
BaF3 = assay: Antiproliferative activity against mouse BaF3 cells harboring EGFR L858R/T790M/C797S triple mutant assessed as inhibition of cell growth incubated for 72 hrs by CellTiter-Glo luminescent assay; type: functional, cell-based; settings: BaF3, 72 h
[2] = Antiproliferative activity against human NCI-H1975 cells harboring EGFR L858R/T790M mutant assessed as cell growth inhibition incubated for 72 hrs by CellTiter Glo assay; type: functional, cell-based; settings: NCI-H1975, 72 h
[3] = molecular target: Epidermal growth factor receptor (Homo sapiens, UniProt P00533); assay: Inhibition of wild type EGFR (unknown origin)
[4] = molecular target: Epidermal growth factor receptor (Homo sapiens, UniProt P00533, C797S/L858R/T790M); assay: Inhibition of EGFR L858R/T790M/C797S triple mutant (unknown origin)
[5] = Antiproliferative activity against mouse Ba/F3 EGFR-T790M/C797S/L858R cells; type: functional, cell-based
[6] = Antiproliferative activity against human NCI-H1975 cells harboring EGFR L858R/T790M/C797S mutant assessed as reduction in cell growth incubated for 72 hrs by SRB assay; type: functional, cell-based; settings: NCI-H1975, 72 h
[7] = molecular target: Tyrosine-protein kinase BTK (Homo sapiens, UniProt Q06187); assay: Inhibition of wild type BTK (unknown origin) using TK as substrate incubated for 1 hr by HTRF assay
A549 = assay: Antiproliferative activity against human A549 cells harboring wild type EGFR assessed as inhibition of cell proliferation incubated for 72 hrs by CCK8 assay; type: functional, cell-based; settings: A549, 72 h
[8] = Clearance in cynomolgus monkey at 1 mg/kg, iv by LC-MS/MS analysis; type: ADME, organism-based, Macaca fascicularis; settings: in vivo
[9] = Intrinsic clearance in human liver microsomes; type: ADME, Microsome

Sequence of Epidermal growth factor receptor (Homo sapiens, UniProt P00533, C797S/L858R/T790M) (P00533 25-1210 T790M/C797S/L858R limits assumed): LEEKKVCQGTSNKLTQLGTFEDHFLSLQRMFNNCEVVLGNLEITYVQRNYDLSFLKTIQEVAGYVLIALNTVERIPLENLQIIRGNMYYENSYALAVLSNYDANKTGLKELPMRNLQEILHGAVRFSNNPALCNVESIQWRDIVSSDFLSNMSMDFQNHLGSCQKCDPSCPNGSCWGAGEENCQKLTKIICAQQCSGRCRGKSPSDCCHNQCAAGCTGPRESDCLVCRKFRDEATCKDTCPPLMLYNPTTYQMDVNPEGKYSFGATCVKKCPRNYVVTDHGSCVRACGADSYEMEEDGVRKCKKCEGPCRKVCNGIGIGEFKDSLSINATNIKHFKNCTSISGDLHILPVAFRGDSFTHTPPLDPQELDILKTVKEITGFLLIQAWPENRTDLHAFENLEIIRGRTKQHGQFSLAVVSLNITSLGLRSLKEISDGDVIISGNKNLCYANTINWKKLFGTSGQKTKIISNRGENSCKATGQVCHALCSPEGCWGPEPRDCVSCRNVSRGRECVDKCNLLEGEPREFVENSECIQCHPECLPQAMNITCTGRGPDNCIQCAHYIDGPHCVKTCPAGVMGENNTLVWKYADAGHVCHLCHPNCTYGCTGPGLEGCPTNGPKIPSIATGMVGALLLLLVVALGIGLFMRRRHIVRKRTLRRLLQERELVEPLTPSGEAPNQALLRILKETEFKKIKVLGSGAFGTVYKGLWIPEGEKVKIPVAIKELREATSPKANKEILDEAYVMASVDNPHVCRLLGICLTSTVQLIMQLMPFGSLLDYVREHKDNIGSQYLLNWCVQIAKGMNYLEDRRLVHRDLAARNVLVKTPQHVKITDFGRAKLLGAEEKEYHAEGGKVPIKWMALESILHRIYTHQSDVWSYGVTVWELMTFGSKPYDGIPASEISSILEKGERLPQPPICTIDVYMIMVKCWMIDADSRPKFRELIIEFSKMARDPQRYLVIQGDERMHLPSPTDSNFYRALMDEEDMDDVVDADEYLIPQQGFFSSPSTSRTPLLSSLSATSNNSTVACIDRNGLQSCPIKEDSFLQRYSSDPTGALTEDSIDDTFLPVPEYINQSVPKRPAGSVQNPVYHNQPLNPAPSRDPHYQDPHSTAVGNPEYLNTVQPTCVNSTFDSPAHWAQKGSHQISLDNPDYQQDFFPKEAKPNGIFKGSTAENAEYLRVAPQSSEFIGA
Sequence of Epidermal growth factor receptor (Homo sapiens, UniProt P00533) (P00533 whole entry): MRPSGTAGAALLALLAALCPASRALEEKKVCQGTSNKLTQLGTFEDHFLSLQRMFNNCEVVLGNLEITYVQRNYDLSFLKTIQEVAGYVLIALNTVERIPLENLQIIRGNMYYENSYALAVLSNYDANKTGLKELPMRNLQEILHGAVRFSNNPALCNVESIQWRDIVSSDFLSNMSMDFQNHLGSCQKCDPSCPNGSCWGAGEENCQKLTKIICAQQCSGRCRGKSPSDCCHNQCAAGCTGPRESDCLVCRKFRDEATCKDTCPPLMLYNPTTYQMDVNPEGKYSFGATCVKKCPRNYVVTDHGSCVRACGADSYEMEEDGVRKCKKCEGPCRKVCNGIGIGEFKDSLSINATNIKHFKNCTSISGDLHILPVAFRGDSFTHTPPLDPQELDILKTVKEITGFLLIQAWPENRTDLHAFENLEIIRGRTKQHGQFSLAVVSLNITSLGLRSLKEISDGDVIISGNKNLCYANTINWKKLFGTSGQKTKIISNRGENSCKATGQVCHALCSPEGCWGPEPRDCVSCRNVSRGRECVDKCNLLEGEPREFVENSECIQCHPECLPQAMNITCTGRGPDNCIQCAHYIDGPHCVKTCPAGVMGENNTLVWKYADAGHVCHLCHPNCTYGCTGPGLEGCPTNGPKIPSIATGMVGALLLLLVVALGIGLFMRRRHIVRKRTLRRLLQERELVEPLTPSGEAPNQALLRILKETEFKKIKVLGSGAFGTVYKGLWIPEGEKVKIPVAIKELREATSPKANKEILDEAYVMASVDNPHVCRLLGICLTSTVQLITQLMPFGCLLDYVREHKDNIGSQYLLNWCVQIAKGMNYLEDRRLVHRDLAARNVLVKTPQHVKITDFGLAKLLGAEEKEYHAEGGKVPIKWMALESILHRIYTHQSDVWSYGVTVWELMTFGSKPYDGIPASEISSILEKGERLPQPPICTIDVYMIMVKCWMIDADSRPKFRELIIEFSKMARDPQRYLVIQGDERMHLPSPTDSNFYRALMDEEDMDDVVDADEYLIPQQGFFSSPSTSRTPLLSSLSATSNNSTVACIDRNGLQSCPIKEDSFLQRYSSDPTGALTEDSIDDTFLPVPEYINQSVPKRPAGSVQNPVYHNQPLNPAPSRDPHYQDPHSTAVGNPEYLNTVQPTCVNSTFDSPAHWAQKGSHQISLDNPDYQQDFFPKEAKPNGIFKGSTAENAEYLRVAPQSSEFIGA
Sequence of Epidermal growth factor receptor (Homo sapiens, UniProt P00533, C797S/EX19DEL/T790M) (P00533 whole entry, looked up, stated change not applied): as the sequence (P00533 whole entry) above
Sequence of Tyrosine-protein kinase BTK (Q06187 whole entry): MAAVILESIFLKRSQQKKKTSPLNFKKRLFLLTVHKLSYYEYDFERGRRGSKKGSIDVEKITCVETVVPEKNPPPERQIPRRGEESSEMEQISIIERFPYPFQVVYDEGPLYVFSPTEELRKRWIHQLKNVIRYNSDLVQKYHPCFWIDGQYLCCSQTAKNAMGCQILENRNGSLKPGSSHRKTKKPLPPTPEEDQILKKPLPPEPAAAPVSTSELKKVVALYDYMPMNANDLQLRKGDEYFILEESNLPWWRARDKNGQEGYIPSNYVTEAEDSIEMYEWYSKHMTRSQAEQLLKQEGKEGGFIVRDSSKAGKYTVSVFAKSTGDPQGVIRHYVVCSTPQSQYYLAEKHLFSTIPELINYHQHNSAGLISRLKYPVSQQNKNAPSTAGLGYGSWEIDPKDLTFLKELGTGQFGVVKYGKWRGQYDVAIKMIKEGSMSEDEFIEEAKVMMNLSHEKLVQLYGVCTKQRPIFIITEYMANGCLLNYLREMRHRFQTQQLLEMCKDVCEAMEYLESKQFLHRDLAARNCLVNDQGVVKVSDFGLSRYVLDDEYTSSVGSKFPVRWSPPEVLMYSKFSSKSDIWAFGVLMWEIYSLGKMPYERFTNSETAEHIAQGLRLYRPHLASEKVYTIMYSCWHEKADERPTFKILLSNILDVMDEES

| SMILES | IC50 [1] [nM] | IC50 (BaF3) [nM] | other results |
| --- | --- | --- | --- |
| CCS(=O)(=O)n1cc2c3cc(ccc31)OCCCCOc1cc(ccc1N1CCOCC1)Nc1ncc(Cl)c-2n1 | > 1000 | – | – |
| CCS(=O)(=O)n1cc2c3ccc(cc31)OCCCCCOc1cc(ccc1N1CCOCC1)Nc1ncc(Cl)c-2n1 | 141 | – | – |
| CCc1cc(Nc2ncc(Br)c(Nc3ccc4c(c3P(C)(C)=O)OCCO4)n2)c(OC)cc1N1CCC(N2CC(N(C)C)C2)CC1 | 0.08 | 8 | – |
| COc1cc(N2CCC(N)CC2)ccc1Nc1ncc(C(=O)OC(C)C)c(-c2cn(C)c3ccccc23)n1 | – | 354 | – |
| CCOC1CN(C2CCN(c3cc(OC)c(Nc4ncc(Br)c(Nc5ccc6nccnc6c5P(C)(C)=O)n4)cc3C)CC2)C1 | – | 29 | – |
| COc1cc(N2CCC(N3CC(N(C)C)C3)CC2)c(C)cc1Nc1ncc(Br)c(Nc2ccc3nccnc3c2P(C)(C)=O)n1 | – | 12.7 | – |
| CCS(=O)(=O)n1cc2c3cc(ccc31)OCCCCCCCCOc1cc(ccc1N1CCOCC1)Nc1ncc(Cl)c-2n1 | 89 | – | – |
| CC(C)c1cnc(N2CC(O)C2C)c2cnc(Nc3ccnc(N4CCC(O)C(C)(F)C4)n3)cc12 (stereo not given) | – | – | IC50 [2]: 20 nM |
| COc1cc(N2CCC(N3CC(F)(CO)C3)CC2)c(C)cc1Nc1ncc(Br)c(Nc2ccc3nccnc3c2P(C)(C)=O)n1 | – | 18.7 | – |
| COc1cc(N2CCC(N3CC(CO)C3)CC2)c(C)cc1Nc1ncc(Br)c(Nc2ccc3nccnc3c2P(C)(C)=O)n1 | – | 41 | – |
| CC(C)c1cnc(N2CCC2)c2cnc(Nc3ccnc(N4CCC(O)C(C)(F)C4)n3)cc12 (stereo not given) | – | – | IC50 [2]: 9.1 nM |
| CNC(=O)c1cnc(Nc2ccnc(N3CCC(O)CC3)n2)cc1NC(C)C | – | – | IC50 [2]: 46 nM |
| CNc1ncc(C(C)C)c2cc(Nc3ccnc(N4CCC(O)C(F)C4)n3)ncc12 (stereo not given) | – | – | IC50 [2]: 12 nM |
| CN1CCCN(c2ccc(Nc3ncc(Br)c(Nc4ccccc4NS(=O)(=O)C4CC4)n3)cc2)CC1 | – | 5.6 | IC50 [3]: 0.61 nM |
| Cc1cc(Nc2ncc(Br)c(Nc3ccccc3NS(=O)(=O)C3CC3)n2)ccc1N1CCCN(C)CC1 | – | – | IC50 [3]: 70.7 nM |
| CCS(=O)(=O)n1cc2c3cc(ccc31)OCCCCCCCOc1cc(ccc1N1CCOCC1)Nc1ncc(Cl)c-2n1 | 19 | – | – |
| COc1cc(N2CCC(N3CCN(C)CC3)CC2)ccc1Nc1ncc(Cl)c(-c2cn(S(=O)(=O)C(C)C)c3ccccc23)n1 | 33.3 | – | IC50 [4]: 222 nM |
| COc1cc(N2CCN(C)CC2)c(-c2cn[nH]c2)cc1Nc1ncc(Cl)c(Nc2ccccc2P(C)(C)=O)n1 | 0.23 | – | – |
| CN(C)C1CCN(c2ccc(Nc3ncc(Br)c(Nc4ccccc4NS(=O)(=O)C4CC4)n3)cc2NS(C)(=O)=O)CC1 | – | – | IC50 [5]: 780 nM |
| COc1cc(N2CCOCC2)c(-c2cnn(C)c2)cc1Nc1ncc(Cl)c(Nc2ccccc2P(C)(C)=O)n1 | 0.2 | – | IC50 [6]: 0.122 nM; IC50 [7]: 4.4 nM |
| CCS(=O)(=O)n1cc2c3ccc(cc31)OCCCCCCOc1cc(c(C3CC3)cc1N1CCOCC1)Nc1ncc(Cl)c-2n1 | 56.4 | – | – |
| COc1cc(N2CCN(C(C)=O)CC2)ccc1Nc1nccc(Nc2ccc(Nc3ccc(S(=O)(=O)F)cc3)cc2)n1 | – | – | IC50 [3]: 210 nM; IC50 [4]: 110 nM |
| CCS(=O)(=O)n1cc2c3cc(ccc31)OCCCCCCOc1cc(ccc1N1CCOCC1)Nc1ncc(Cl)c-2n1 | 6.2 | – | – |
| CN1CCN(C2CCN(c3ccc(Nc4ncc(Cl)c(Nc5ccccc5P(C)(C)=O)n4)cc3Cl)CC2)CC1 | – | – | IC50 [4]: 0.7 nM |
| CCS(=O)(=O)n1cc(-c2nc(Nc3cc(Cl)c(N4CCC(N5CCN(C)CC5)CC4)cc3OC)ncc2Cl)c2ccccc21 | 24.2 | – | IC50 [4]: 145 nM |
| COCC1CN(C2CCN(c3cc(OC)c(Nc4ncc(Br)c(Nc5ccc6nccnc6c5P(C)(C)=O)n4)cc3C)CC2)C1 | 0.7 | 15 | – |
| CCS(=O)(=O)n1cc2c3ccc(cc31)OCCCCCCOc1cc(c(Cl)cc1N1CCOCC1)Nc1ncc(Cl)c-2n1 | 6.2 | – | – |

| SMILES | IC50 [1] [nM] | IC50 (BaF3) [nM] | other results |
| --- | --- | --- | --- |
| COc1cc(N2CCC(N3CC(C)(CO)C3)CC2)c(C)cc1Nc1ncc(Br)c(Nc2ccc3nccnc3c2P(C)(C)=O)n1 | – | 17.7 | – |
| CCS(=O)(=O)n1cc2c3ccc(cc31)OCCCCCCOc1cc(ccc1N1CCOCC1)Nc1ncc(Cl)c-2n1 | 57 | – | – |
| COCCCc1nc(-c2ccc(F)cc2)c(-c2ccnc3[nH]c(-c4ccccc4)cc23)[nH]1 | – | – | IC50 [3]: 6 nM; IC50 [4]: 6 nM |
| C=CC(=O)Nc1ccc(OC)c(Nc2cc(-c3[nH]c(CCCO)nc3-c3ccc(F)cc3)ccn2)c1 | – | – | IC50 [3]: 8 nM |
| COc1cc(N2CCC(N3CCN(C)CC3)CC2)ccc1Nc1ncc(Cl)c(-c2cn(S(=O)(=O)C3CC3)c3ccccc23)n1 | 25.6 | – | IC50 [4]: 4.3 nM |
| C=CC(=O)Nc1ccc(OC)c(Nc2cc(-c3[nH]c(SCCOC)nc3-c3ccc(F)cc3)ccn2)c1 | – | – | IC50 [4]: 35 nM |
| COc1cc(N2CCC(N3CCN(C)CC3)CC2)c(-c2cnn(C)c2)cc1Nc1ncc(Cl)c(Nc2ccccc2P(C)(C)=O)n1 | 0.32 | – | – |
| C=CC(=O)Nc1cc(Nc2ncc(C(=O)OC(C)C)c(-c3cn(C)c4ccccc34)n2)c(OC)cc1N(C)CCN(C)C [MOBOCERTINIB] | – | 271 | – |
| COc1cc(N2CCC(N(C)C)CC2)ccc1Nc1ncc(C(=O)Oc2ccccc2)c(-c2c[nH]c3ccccc23)n1 | – | 7.1 | IC50 [3]: 0.01 nM |
| CC(C)c1cnc(N2CC(CS(C)(=O)=O)C2)c2cnc(Nc3ccnc(N4CCC(O)C(C)(F)C4)n3)cc12 (stereo not given) | – | – | IC50 (A549): 5.29 µM |
| Cc1cc(Nc2ncc(Cl)c(Nc3ccccc3NS(=O)(=O)C3CC3)n2)ccc1N1CCC(N(C)C)CC1 | – | – | IC50 [3]: 4.76 nM; IC50 [4]: 0.03 nM |
| CCOC1CN(C2CCN(c3cc(OC)c(Nc4ncc(Br)c(Nc5ccc6c(c5P(C)(C)=O)OCCO6)n4)cc3C)CC2)C1 | – | 14 | – |
| CCS(=O)(=O)n1cc2c3ccc(cc31)OCCCCCCOc1cc(c(C)cc1N1CCOCC1)Nc1ncc(Cl)c-2n1 | 23.6 | – | – |
| OCCCc1nc(-c2ccc(F)cc2)c(-c2ccnc3[nH]c(-c4ccccc4)cc23)[nH]1 | – | – | IC50 [3]: < 0.5 nM |
| COc1cc(N2CCN(C)CC2)ccc1Nc1ncc(C(=O)OC(C)C)c(-c2cn(C)c3ccccc23)n1 | – | 615 | – |
| CCc1cc(Nc2ncc(Br)c(Nc3ccc4c(c3P(C)(C)=O)OCO4)n2)c(OC)cc1N1CCC(N2CC(N(C)C)C2)CC1 | 0.15 | 40 | IC50 [4]: 0.4 nM |
| COc1cc(N2CCN(C)CC2)ccc1Nc1ncc(C(=O)Oc2ccccc2)c(-c2cn(C)c3ccccc23)n1 | – | 94 | IC50 [3]: 0.05 nM |
| CCP(=O)(CC)c1ccccc1Nc1nc(Nc2cc(-c3cnn(C)c3)c(N3CCOCC3)cc2OC)ncc1Cl | 0.2 | – | – |
| CC(C)c1ccc(N2CC(CS(C)(=O)=O)C2C)c2cnc(Nc3ccnc(N4CCC(O)C(C)(F)C4)n3)cc12 (stereo not given) | – | – | clearance [8]: 31.8 mL/min/kg |
| CCS(=O)(=O)n1cc2c3cc(ccc31)OCCCCCOc1cc(ccc1N1CCOCC1)Nc1ncc(Cl)c-2n1 | 19 | – | – |
| COc1cc(N2CCC(N3CC(C(C)(C)O)C3)CC2)c(C)cc1Nc1ncc(Br)c(Nc2ccc3nccnc3c2P(C)(C)=O)n1 | – | 18 | – |
| COCC1(C)CN(C2CCN(c3cc(OC)c(Nc4ncc(Br)c(Nc5ccc6nccnc6c5P(C)(C)=O)n4)cc3C)CC2)C1 | – | 22.3 | – |
| COC1CCN(c2nccc(Nc3cc4c(C(C)C)ccc(N5CC(CS(C)(=O)=O)C5C)c4cn3)n2)CC1F (stereo not given) | – | – | IC50 [6]: 1.1 nM; CLH [9]: 89 µL/min/mg |
| Cc1cc(Nc2ncc(Cl)c(Nc3ccccc3P(C)(C)=O)n2)ccc1N1CCC(N2CCN(C)CC2)CC1 | – | – | IC50 [4]: 0.6 nM |
| COc1cc(N2CCC(N3CC(CC#N)C3)CC2)c(C)cc1Nc1ncc(Br)c(Nc2ccc3nccnc3c2P(C)(C)=O)n1 | – | 12.7 | – |
| COc1cc(N2CCC(N(C)C)CC2)c(-c2cn[nH]c2)cc1Nc1ncc(Cl)c(Nc2ccccc2P(C)(C)=O)n1 | – | – | IC50 [4]: 0.5 nM |
| COc1cc(N2CCC(N(C)C)CC2)c(-c2cnn(C)c2)cc1Nc1ncc(Cl)c(Nc2ccccc2P(C)(C)=O)n1 | 0.19 | – | – |
